Test results as given in patent publication US20170248616A1, “IN VITRO COMPOSITIONS COMPRISING HUMAN SAMPLE AND AMYLOID TARGETING AGENT” (Amydis Diagnostics, Inc., priority 2014, published 2017).

Molecular target: T1, amyloid deposits in hippocampal brain sections (Homo sapiens, UniProt P05067)
T1 construct: from tissue; host or cells: hippocampal brain sections of a mouse model for Alzheimer's disease
Assay: Fluorescence labeling of amyloid deposits in hippocampal brain sections from a mouse model for Alzheimer's disease
Conditions: excitation wavelength 488 nm; fluorescence micrographs
Text: An excitation wavelength of 488 nm was used to excite the fluorophores. FIG. 13. […] An excitation wavelength of 488 nm was used to excite the fluorophores.

T1 sequence (P05067 672-713 limits assumed): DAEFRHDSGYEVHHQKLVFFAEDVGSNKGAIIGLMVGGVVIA

Structure (SMILES) | fluorescence labeling of amyloid deposits
COCCOCCOCCNC(=O)/C(C#N)=C/c1ccc2cc(N3CCCCC3)ccc2c1 [Compound 1, 2-cyano-N-(2-(2-(2-methoxyethoxy)ethoxy)ethyl)-3-(6-(piperidin-1-yl)naphthalen-2-yl)acrylamide] | fluorescence labeling of amyloid deposits
COCCOCCOCCNS(=O)(=O)/C(C#N)=C/c1ccc2cc(N3CCCCC3)ccc2c1 [Compound 2, 1-cyano-N-(2-(2-(2-methoxyethoxy)ethoxy)ethyl)-2-(6-(piperidin-1-yl)naphthalen-2-yl)ethenesulfonamide] | fluorescence labeling of amyloid deposits
